Data taken from US12030896B2, “PIKfyve inhibitors” (Mayo Foundation for Medical Education and Research, priority 2018, dated 2024).
“Also recorded” adds a separate entry of the source.

Key:
U251 glioblastoma cell = experiment: Cell killing in combination with vemurafenib; type: cell-based, human
Protocol: A 25 mM stock of vemurafenib (obtained from Selleckchem) in DMSO was diluted to 2× the indicated concentration into the cell suspension immediately prior to plating the cell suspension onto the pre-diluted Example 1 or Example 3, to result in a final 1× concentration of both compounds.
See FIG. 13 for showing of U251 glioblastoma cell killing by Example 1 alone or in the presence of 10 μM vemurafenib over a 72 hour time course.

468 kinases = experiment: Kinase selectivity panel (Treespot dendrogram); type: binding; conditions: for number of kinases blocked to 1% activity level / number of kinases blocked to 10% activity level / number of kinases blocked to 35% activity level: 5000 nM; for selectivity for PIKfyve: comparison of Example 1, Example 3 and apilimod
Protocol: In contrast, 50 nM Apilimod inhibited two kinases to 1% or 10%, and 3 kinases to 35% of control. To examine non-specific binding at higher concentrations, Example 1, Example 3, and Apilimod were tested at 5000 nM. […] PIKfyve is represented at the bottom left of each dendrogram.

[1] = system: Human colorectal carcinoma cell lines (HCT116, HT29); experiment: Killing of colorectal carcinoma cell lines (Cell-titer glow); type: cell-based; conditions: HCT116, HT29 vs brain tumor cell lines
Protocol: Human colorectal carcinoma cell lines were similarly tested for killing by the compound. (ATP activity is defined by use of the Cell-titer glow luminescence assay). […] All experiments were performed using RPMI media (Life Technologies) as the base formulation for “complete” media. HT29 cells require physical scraping in addition to trypsin to dissociate from tissue culture plastic.

| Compound | cell killing on addition of vemurafenib (U251 glioblastoma cell; low concentrations of Example 1 (e.g., 0.5 μM) + 10 μM vemurafenib, 72 hour) | number of kinases blocked to 1% of control (468 kinases; 50 nM, 468 kinases) | number of kinases blocked to 10% of control (468 kinases; 50 nM, 468 kinases) | number of kinases blocked to 35% of control (468 kinases; 50 nM, 468 kinases) | number of kinases blocked to 1% activity level (468 kinases) | number of kinases blocked to 10% activity level (468 kinases) | number of kinases blocked to 35% activity level (468 kinases) | selectivity for PIKfyve (468 kinases) | sensitivity to compound-induced death [1] | killing U251 in combination with vemurafenib (U251 glioblastoma cell) |
| --- | --- | --- | --- | --- | --- | --- | --- | --- | --- | --- |
| Cc1ccc(Nc2nc(N/N=C/c3c[nH]c4ccccc34)nc(N3CCOCC3)n2)cc1 [Example 1, (E)-4-(2-((1H-indol-3-yl)methylene)hydrazinyl)-6-morpholino-N-(p-tolyl)-1,3,5-triazin-2-amine] | significantly improves cell killing | 1 | did not block other kinases | did not block other kinases | 2 | 4 | 11 | more selective | more sensitive |  |
| Cc1ccc(Nc2nc(N/N=C/c3c[nH]c4ccccc34)cc(N3CCOCC3)n2)cc1 [Example 3, (E)-4-(2-((1H-indol-3-yl)methylene)hydrazinyl)-6-morpholino-N-(p-tolyl)pyrimidin-2-amine] |  |  |  |  | 1 | 1 | 4 | more selective; also recorded: highest selectivity |  | synergistic |
